Measurements: the METLIN SMRT retention time set (Domingo-Almenara et al. 2019)

Assay: gradient 5% acetonitrile 3 min, to 50% in 2 min, to 85% in 15 min, held 3 min, 100 µL/min
Conditions: column: Zorbax Extend-C18 2.1 x 50 mm; eluents: water / acetonitrile, 0.1% formic acid
Procedure, shortened: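 Using water and acetonitrile that each contained 0.1% formic acid, mixtures of ~100 pure standards were separated at 100 μL/min on a Zorbax Extend-C18 column (2.1 × 50 mm, 1.8 μm). The HPLC fed a quadrupole time-of-flight mass spectrometer working in positive and negative ionization mode, with dead and dwell volumes of 40 μL and 900 μL. Data were acquired over 3 months. Retention time was read from computationally picked adduct peaks after manual inspection of each.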

RP-LC retention time	SMILES
759 s	O=C([C@@H]1C[C@H](F)CN1S(=O)(=O)c1ccc2c(c1)OCCO2)N1CCCCC1
784 s	Cc1cccc(OCc2nc(-c3ccc(-c4csc(C5CC5)n4)cc3)no2)c1
630 s	O=C(Cn1c(C2CC(=O)N(C3CCCCC3)C2)nc2ccccc21)N1CCOCC1 (stereo not given)
692 s	CCCC(NC(=O)Cc1cccs1)C(=O)Nc1nc2ccccc2[nH]1 (stereo not given)
1150 s	CCc1nc2cc(-c3noc(-c4ccc5c(c4)OCO5)n3)ccc2o1
1140 s	CCC(c1cccs1)N1C(=O)[C@H]2CN(S(=O)(=O)c3ccc(C(C)C)cc3)C[C@H]2C1=O (stereo not given in full)
763 s	O=C(NC1CCCC1)C1CCCN(c2ccc(=O)n(-c3ccc(F)cc3)n2)C1 (stereo not given)
740 s	Cc1ccc(CNC(=O)C2(C)Oc3cccnc3N(C)C2=O)o1 (stereo not given)
791 s	O=C(Nc1cc(-c2ccccn2)no1)c1cccc(F)c1
671 s	NC(=O)C1CCN(C2=NC(=O)/C(=C\c3ccc(-c4ccc(F)cc4)o3)S2)CC1
638 s	Cc1nn(C(C)C(=O)NCc2ccccn2)c(=O)c2c(C)n(-c3ccccc3)nc12 (stereo not given)
1050 s	CC(C)c1ccc(S(=O)(=O)N2CCC(C)(C(=O)NCc3ccc(F)cc3)CC2)cc1
815 s	COc1ccc(C2=C(C)C(N3CCC(C(=O)N(C)Cc4ccco4)CC3)=NS2(=O)=O)cc1
654 s	Cc1cnc(C2CC2)n1C1CCCN(S(=O)(=O)c2ccccc2)C1 (stereo not given)
762 s	O=C(NCc1ccccc1F)C1CCCN(c2nn3c(=O)c4c(nc3s2)CCCC4)C1 (stereo not given)
620 s	Cc1cc2nc(CN3CCN(Cc4ccccc4)CC3)c(=O)[nH]c2cc1C
574 s	COc1ccccc1CNC(=O)Cn1c(N)nc(C)cc1=O
724 s	CC(C)Cn1c(=O)c(N2CCN(C(=O)CSc3ccccc3)CC2)nc2ccncc21
761 s	O=C(NCC(=O)N1CCCc2ccccc21)c1cccs1
639 s	Cc1nn(-c2cc(N3CCCCC3)ncn2)c(C)c1CCC(=O)N1CCN(c2ccccn2)CC1
612 s	COc1ccc(C(CC(=O)N2CCN(c3ccccn3)CC2)N2Cc3ccccc3C2=O)cc1OC (stereo not given)
702 s	Cc1ccc(N2CC(c3nc(-c4ccc5c(c4)ncn5C)no3)CC2=O)cc1C (stereo not given)
566 s	CCCc1cc(N2CCN(C(=O)c3sccc3C)CC2)nc2nnc(C)n12

RP-LC retention time	SMILES
792 s	CCCn1c(=O)c(C)nc2cc(-c3noc(/C=C/c4cccs4)n3)ccc21
649 s	COc1cc(NC(=O)COc2nc(C)nc3ccccc23)cc(OC)c1OC
658 s	COc1ccc(-c2nc(C)cc(C)c2CNS(=O)(=O)c2ccccc2C)cc1
664 s	CC(=O)N1CCC(C2CCN(C(=O)C3CC=CC3)C2)CC1 (stereo not given)
1100 s	Cc1ccc(-c2ccc(OCC(=O)NC(C)(C)C)cc2)cc1
794 s	CC(=O)c1cn(CC(=O)NC(C)c2ccc3c(c2)OCCCO3)c2ccccc12 (stereo not given)
587 s	Cc1nnc2c(=O)n(CC(=O)N3CCN(C4CCCCC4)CC3)c3cccnc3n12
890 s	Cn1cc(C(=O)NCc2ccccc2Cl)c(S(=O)(=O)N2CCSCC2)n1
1130 s	CCCc1noc(-c2ccc(-n3ncc(C(=O)N4CCCC(C)C4)c3C)nc2)n1 (stereo not given)
892 s	CCn1cc(-c2nc(CC(=O)NCc3cccc(C)c3)cs2)c2cccnc21
894 s	O=C(Cn1ccn2nc(-c3ccc(F)cc3)c(CO)c2c1=O)Nc1cccc(Br)c1
594 s	CCN1CCN(c2cc(C)c3cc(NC(=O)COc4ccc(F)cc4)ccc3n2)CC1
896 s	CCOC(=O)N1CCN(C(=O)C2CCN(c3ccc(Sc4ccc(C(C)C)cc4)nn3)CC2)CC1
909 s	COc1ccccc1CC(=O)Nc1ccc(-c2nc(Cn3cc(C)cn3)c(C)o2)cc1
631 s	CC(C)n1cc(CN2CCOCCNC(=O)CC2)c2ccccc21
748 s	CCOC(=O)c1cccc(Nc2c(-c3cccc(O)c3)nc3cnccn23)c1
743 s	CCOC(=O)CNC(=O)N1CCCN(C2=NS(=O)(=O)C(c3ccc(C)cc3)=C2C)CC1
972 s	COCCNC(=O)c1csc(N2CCN(c3ccc(Cl)cc3)CC2)n1
568 s	Cc1nn(C)cc1C(C)NC(=O)C1CCN(c2cn[nH]c(=O)c2)CC1 (stereo not given)
660 s	COCc1cc(=O)n2c(n1)N(Cc1ccccc1F)CC2
598 s	O=C(NCCCN1CCOCC1)c1c2c(nc3ccccc13)C(=O)N(C1CCCCC1)C2
551 s	CC(C)NC(=O)CCC1CCN(c2cc(NC3CC3)ncn2)CC1
1050 s	Cc1ccc(C2Cn3nnc(C(=O)NC4CCCCC4)c3CO2)cc1 (stereo not given)

RP-LC retention time	SMILES
593 s	Cc1ccc(CN2CCN(C(=O)c3cccc4[nH]cc(CN5CCSCC5)c34)CC2)cc1
690 s	Cc1nc(C)c(-c2cc(C(=O)N3CCN(c4ccc(F)cc4)CC3)n[nH]2)s1
891 s	COc1ccccc1CCC(=O)N1CCC[C@@H]1C(=O)NCCc1csc(-c2ccccc2)n1
642 s	CNC(=O)[C@@H]1CN(C(=O)C2CC=CCC2)C[C@H]1c1nc(C)no1 (stereo not given in full)
914 s	CSc1ccc(-c2nc3cnccn3c2NC2CCCC2)cc1
832 s	Cc1nc(-c2ccc3c(c2)n(CC(=O)N2CCn4c2nc2ccccc24)c(=O)n3C(C)C)no1
810 s	Cc1cccc(NC(=O)c2ccc3nn(CC(=O)Nc4ccc(C)c(F)c4)c(=O)n3c2)c1
566 s	COc1cccc(CCC(=O)N2C[C@@H]3C[C@H](NS(C)(=O)=O)[C@H]2C3)c1
785 s	CSc1ccc(-c2nc3nc(C)cc(C)n3c2Nc2ccccc2C)cc1
1190 s	COc1ccc(-c2noc(-c3nnn4c3COC(c3ccc(Cl)cc3)C4)n2)cc1 (stereo not given)
732 s	O=C(Nc1cnc(N2CCCC2)nc1)c1ccc(Br)o1
583 s	CC(C)C(=O)N1CC[C@H](CO)[C@H](NC(=O)C2CC2)C1
657 s	O=C(Nc1ccc(N2CCCCCC2)c(C(=O)O)c1)c1cccs1
583 s	c1ccc2c(c1)CCN(Cc1nc(-c3ccc(N4CCCC4)nc3)no1)C2
1070 s	COc1c(C(=O)NCc2ccc3c(c2)OCO3)sc2ccc(Cl)cc12
625 s	Cc1ccc(C(=O)N2CCc3[nH]nc(C(=O)N(C)C)c3C2)cc1F
790 s	Cc1noc(-c2nn(C)c3c2CN(C(=O)Nc2ccc(Cl)cc2)CC3)n1
1260 s	COc1ccc(C)cc1NC(=O)Cn1nc(N2CCCC(C)C2)c2ccccc2c1=O (stereo not given)
947 s	COc1ccc(N2CC(c3nc(-c4ccc(Cl)cc4)no3)CC2=O)cc1OC (stereo not given)
973 s	O=C(NC1CCCCCC1)c1ccc2ccnc(N3CCN(c4ccccc4F)CC3)c2c1
750 s	O=C(c1ccc(OCC2CCCN(C(=O)C3CCCC3)C2)cc1)N1CCOCC1 (stereo not given)
605 s	O=C1NC(C(=O)NCc2ccco2)Cn2cccc21 (stereo not given)
683 s	CCOc1ccc(-n2c(N3CCN(CC)CC3)nc3cc(C(=O)OC)ccc3c2=O)cc1

RP-LC retention time	SMILES
756 s	CCC(=O)N1CCc2cc(N3CC(C(=O)NCc4ccc(C)cc4)CC3=O)ccc21 (stereo not given)
1190 s	Cc1cccc(-c2nnc(-c3cccc(S(=O)(=O)N4CCCCCC4)c3)o2)c1
629 s	CC(C)NC(=O)C1CCN(c2cnc(N3CCSCC3)nc2)CC1
847 s	Cc1ccc(CCC(=O)Nc2cccc3ccccc23)o1
869 s	CC(C)(C)CNC(=O)c1cc(=O)[nH]c2ccccc12
857 s	CC1=C(c2ccc(F)cc2)S(=O)(=O)N=C1N1CCCN(C(=O)c2ccc(C)s2)CC1
1040 s	CCn1c(=O)c(C)nc2cc(-c3noc(-c4ccc(Br)o4)n3)ccc21
708 s	Nc1ccc2c(c1)nnn2-c1ccccc1
660 s	Cc1ccc2c(C(=O)NCCc3cccs3)cc(NC(=O)C3CCC3)cc2n1
842 s	COc1cc(F)ccc1-c1ccnc2nc(C(C)C)nn12
664 s	O=C(c1ccoc1)N1CCCCC1c1nc(-c2cnccn2)no1 (stereo not given)
1130 s	COc1ccccc1-c1nc(Cn2nnc(-c3nc(-c4cccc(F)c4)no3)c2C)c(C)o1
786 s	O=C(Cn1cc(C(=O)C(=O)N2CCCC2)c2ccccc21)NCc1ccc2c(c1)OCCCO2
766 s	Cn1cc(-c2nnc(SCC(=O)N3CCc4ccccc43)n2C)c(-c2ccccc2)n1
847 s	O=C(CN1C(=O)CCCc2cc(S(=O)(=O)N3CCCCC3)ccc21)NCc1ccccc1
722 s	Cc1ccn2cc(C(=O)N3CCN(c4ccccc4Cl)CC3)nc2c1
780 s	CCOC(=O)c1c(C)oc(C)c(C(=O)OCC)c1=O
1100 s	Cc1nc2cc(-c3noc(-c4ccc(F)c(F)c4)n3)ccc2o1
859 s	O=C(NCCc1csc(-c2ccccc2)n1)C1CCN(C(=O)CCc2ccccc2)CC1
627 s	CCN(CC)C(=O)c1cccnc1

SMILES	RP-LC retention time
CC1(C)CC(=O)CC(C)(C)N1O	666 s
